≈ marks a conversion by molar mass, not a printed value. Calls of active or inactive are those of the source. No cut-off for these calls is given here.
Legend:
[1] = system: Klebsiella pneumoniae; assay: Potentiation of ceftazidime-induced antibacterial activity against Klebsiella pneumoniae clinical isolate T2301 expressing NDM-1 assessed as ceftazidime MIC at 32 mg/L by CLSI protocol based broth microdilution assay; assay type: functional
[2] = system: Escherichia coli; assay: Synergistic antibacterial activity against Escherichia coli T2544 expressing VIM-1 assessed as fractional inhibitory concentration index in presence of imipenem by checkerboard assay; assay type: functional
[3] = system: Escherichia coli; assay: Antimicrobial activity against Escherichia coli T2359 expressing NDM-1 assessed as inhibition of bacterial growth by CLSI protocol based broth microdilution assay; assay type: functional
[4] = system: Citrobacter freundii; assay: Potentiation of imipenem-induced antibacterial activity against Citrobacter freundii T2431 expressing KPC-3 assessed as imipenem MIC at 32 mg/L by CLSI protocol based broth microdilution assay; assay type: functional
[5] = system: Enterobacter cloacae; assay: Potentiation of imipenem-induced antibacterial activity against Enterobacter cloacae T2311 expressing NDM-1 assessed as imipenem MIC at 32 mg/L by CLSI protocol based broth microdilution assay; assay type: functional
[6] = system: Klebsiella pneumoniae; assay: Antimicrobial activity against Klebsiella pneumoniae T2301 expressing NDM-1 assessed as inhibition of bacterial growth at 0.5XMIC for 6 hrs by CLSI protocol based broth microdilution assay; assay type: functional, organism-based
[7] = system: Bacteria; assay: Inhibition of recombinant VIM-1 (unknown origin) using fluorocillin as substrate at 3 uM incubated for 30 mins by fluorescence based assay
[8] = system: Bacteria; assay: Inhibition of recombinant IMP-1 (unknown origin) using fluorocillin as substrate at 30 uM incubated for 30 mins by fluorescence based assay
[9] = system: Citrobacter freundii; assay: Potentiation of imipenem-induced antibacterial activity against Citrobacter freundii T2354 expressing VIM-4 assessed as imipenem MIC at 32 mg/L by CLSI protocol based broth microdilution assay; assay type: functional
[10] = system: Escherichia coli; assay: Potentiation of imipenem-induced antibacterial activity against Escherichia coli T2359 expressing NDM-1 assessed as imipenem MIC at 32 mg/L by CLSI protocol based broth microdilution assay; assay type: functional
[11] = system: Klebsiella pneumoniae; assay: Potentiation of meropenem-induced antibacterial activity against Klebsiella pneumoniae clinical isolate T2301 expressing NDM-1 assessed as meropenem MIC at 32 mg/L by CLSI protocol based broth microdilution assay; assay type: functional
[12] = system: Enterobacter cloacae; assay: Potentiation of imipenem-induced antibacterial activity against Enterobacter cloacae T2311 expressing NDM-1 assessed as fold change in imipenem MIC at 32 mg/L by CLSI protocol based broth microdilution assay; assay type: functional
[13] = system: Citrobacter freundii; assay: Potentiation of imipenem-induced antibacterial activity against Citrobacter freundii T2354 expressing VIM-4 assessed as fold change in imipenem MIC at 32 mg/L by CLSI protocol based broth microdilution assay; assay type: functional
[14] = system: Klebsiella pneumoniae; assay: Antimicrobial activity against Klebsiella pneumoniae clinical isolate T2301 expressing NDM-1 assessed as inhibition of bacterial growth by CLSI protocol based broth microdilution assay; assay type: functional
[15] = system: Pseudomonas aeruginosa; assay: Potentiation of imipenem-induced antibacterial activity against Pseudomonas aeruginosa T1098 expressing IMP-7 assessed as fold change in imipenem MIC at 32 mg/L by CLSI protocol based broth microdilution assay; assay type: functional
[16] = system: Enterobacter cloacae; assay: Potentiation of imipenem-induced antibacterial activity against Enterobacter cloacae T2218 expressing GIM-1 assessed as imipenem MIC at 32 mg/L by CLSI protocol based broth microdilution assay; assay type: functional
[17] = system: Klebsiella pneumoniae; assay: Synergistic antibacterial activity against Klebsiella pneumoniae clinical isolate T2301 expressing NDM-1 assessed as fractional inhibitory concentration index in presence of imipenem by checkerboard assay; assay type: functional
[18] = system: Pseudomonas aeruginosa; assay: Potentiation of imipenem-induced antibacterial activity against Pseudomonas aeruginosa T2229 expressing SPM-1 assessed as imipenem MIC at 32 mg/L by CLSI protocol based broth microdilution assay; assay type: functional
[19] = system: Pseudomonas aeruginosa; assay: Potentiation of imipenem-induced antibacterial activity against Pseudomonas aeruginosa T2283 expressing VIM-2 assessed as fold change in imipenem MIC at 32 mg/L by CLSI protocol based broth microdilution assay; assay type: functional
[20] = system: Klebsiella pneumoniae; assay: Potentiation of ciprofloxacin-induced antibacterial activity against Klebsiella pneumoniae clinical isolate T2301 expressing NDM-1 assessed as ciprofloxacin MIC at 32 mg/L by CLSI protocol based broth microdilution assay; assay type: functional
[21] = system: Pseudomonas aeruginosa; assay: Potentiation of imipenem-induced antibacterial activity against Pseudomonas aeruginosa T2325 expressing IMP-1 assessed as imipenem MIC at 32 mg/L by CLSI protocol based broth microdilution assay; assay type: functional
[22] = system: Serratia marcescens; assay: Potentiation of imipenem-induced antibacterial activity against Serratia marcescens T2352 expressing NDM-1 assessed as imipenem MIC at 32 mg/L by CLSI protocol based broth microdilution assay; assay type: functional
[23] = system: Citrobacter freundii; assay: Potentiation of imipenem-induced antibacterial activity against Citrobacter freundii T2431 expressing KPC-3 assessed as fold change in imipenem MIC at 32 mg/L by CLSI protocol based broth microdilution assay; assay type: functional
[24] = system: Escherichia coli; assay: Potentiation of gentamicin-induced antibacterial activity against Escherichia coli clinical isolate T2228 expressing VIM-1 assessed as gentamicin MIC at 32 mg/L by CLSI protocol based broth microdilution assay; assay type: functional
[25] = system: Pseudomonas aeruginosa; assay: Potentiation of imipenem-induced antibacterial activity against Pseudomonas aeruginosa T2229 expressing SPM-1 assessed as fold change in imipenem MIC at 32 mg/L by CLSI protocol based broth microdilution assay; assay type: functional
[26] = Cytotoxicity against human HUVEC cells assessed as metabolic activity measured after 24 hrs by cell-titer blue assay; assay type: toxicity, cell-based
[27] = system: Escherichia coli; assay: Potentiation of ceftazidime-induced antibacterial activity against Escherichia coli clinical isolate T2228 expressing VIM-1 assessed as ceftazidime MIC at 32 mg/L by CLSI protocol based broth microdilution assay; assay type: functional
[28] = system: Escherichia coli; assay: Potentiation of cefuroxime-induced antibacterial activity against Escherichia coli clinical isolate T2228 expressing VIM-1 assessed as cefuroxime MIC at 32 mg/L by CLSI protocol based broth microdilution assay; assay type: functional
[29] = system: Escherichia coli; assay: Potentiation of piperacillin-induced antibacterial activity against Escherichia coli clinical isolate T2228 expressing VIM-1 assessed as piperacillin MIC at 32 mg/L by CLSI protocol based broth microdilution assay; assay type: functional
[30] = system: Escherichia coli; assay: Bactericidal activity against Escherichia coli T2359 expressing VIM-1 assessed as killing rate at 0.5 XMIC measured after 24 hrs in presence of imipenem by time-kill assay relative to control; assay type: functional
[31] = system: Klebsiella pneumoniae; assay: Potentiation of imipenem-induced antibacterial activity against Klebsiella pneumoniae T2432 expressing KPC-9 assessed as fold change in imipenem MIC at 32 mg/L by CLSI protocol based broth microdilution assay; assay type: functional
[32] = Inhibition of recombinant NDM-1 (unknown origin) using fluorocillin as substrate at 30 uM incubated for 30 mins by fluorescence based assay; settings: Bacteria
[33] = system: Klebsiella pneumoniae; assay: Potentiation of imipenem-induced antibacterial activity against Klebsiella pneumoniae clinical isolate T2301 expressing NDM-1 assessed as imipenem MIC at 32 mg/L by CLSI protocol based broth microdilution assay; assay type: functional
[34] = Inhibition of recombinant NDM-1 (unknown origin) using fluorocillin as substrate at 3 uM incubated for 30 mins by fluorescence based assay; settings: Bacteria
[35] = system: Enterobacter cloacae; assay: Potentiation of imipenem-induced antibacterial activity against Enterobacter cloacae T2353 expressing VIM-1 assessed as imipenem MIC at 32 mg/L by CLSI protocol based broth microdilution assay; assay type: functional

SMILES: N#CCN(Cc1ccccc1)Cc1cc([N+](=O)[O-])c2cccnc2c1O
- MIC [1]: 0.064 µg/mL
- fractional inhibitory concentration index (FICI) [2]: 0.265
- MIC [3]: > 0.064 µg/mL
- MIC [4]: 0.004 µg/mL
- MIC [5]: 0.0005 µg/mL
- inhibition [6]: Active
- inhibition [7]: 98%
- inhibition [8]: 98%
- MIC [9]: 0.25 µg/mL
- MIC [10]: 0.0005 µg/mL
- MIC [11]: 0.25 µg/mL
- fold change (FC) [12]: 16
- fold change (FC) [13]: 8
- MIC [14]: > 0.066 µg/mL
- fold change (FC) [15]: 8
- MIC [16]: 0.0005 µg/mL
- fractional inhibitory concentration index (FICI) [17]: 0.265
- MIC [18]: 0.032 µg/mL
- fold change (FC) [19]: 32
- MIC [20]: 0.128 µg/mL
- MIC [21]: 0.001 µg/mL
- MIC [22]: 0.25 µg/mL
- fold change (FC) [23]: 2
- MIC [24]: 0.002 µg/mL
- fold change (FC) [25]: 16
- IC50 at 24 h [26]: 45 µg/mL (≈ 129 µM)
- MIC [27]: 0.06 µg/mL
- MIC [28]: 0.002 µg/mL
- MIC [29]: 1 µg/mL
- Activity [30]: >99.9%
- fold change (FC) [31]: 2
- inhibition [32]: 96%
- MIC [33]: 0.25 µg/mL
- inhibition [34]: 68%
- MIC [35]: 0.001 µg/mL

— ChEMBL document CHEMBL5046233, “Nitroxoline and its derivatives are potent inhibitors of metallo-β-lactamases” (Eur J Med Chem, 2022)
